Data reported in patent US11420973B2, “Amide substituted indole compounds useful as TLR inhibitors” (BRISTOL-MYERS SQUIBB COMPANY, priority 2017, dated 2022).
Like-named read-outs stand apart in the source and are kept apart here.

Columns and labels:
human TLR7 = human TLR7 (Homo sapiens (Human), UniProt Q9NYK1); test: TLR7 inhibition reporter assay (HEK-Blue SEAP reporter, gardiquimod stimulation); format: cell-based; details: HEK-Blue cells overexpressing human TLR7, gardiquimod 7.5 μM
Procedure: (§1) HEK-Blue™-cells (Invivogen) overexpressing human TLR7, TLR8 or TLR9 receptors were used for screening inhibitors of these receptors using an inducible SEAP (secreted embryonic alkaline phosphatase) reporter gene under the control of the IFN-β minimal promoter fused to five NF-κB and AP-1-binding sites. Briefly, cells are seeded into Greiner 384 well plates (15000 cells per well for TLR7, 20,000 for TLR8 and 25,000 for TLR9) and then treated with test compounds in DMSO to yield a final dose response concentration range of 0.05 nM-50 μM. After a 30 minute compound pre-treatment at room temperature, the cells are then stimulated with a TLR7 ligand (gardiquimod at a final concentration of 7.5 μM), TLR8 ligand (R848 at a final concentration of 15.9 μM) or TLR9 ligand (ODN2006 at a final concentration of 5 nM) to activate NF-κB and AP-1 which induce the production of SEAP. After a 22 hour incubation at 37° C., 5% CO2, SEAP levels are determined with the addition of HEK-Blue™ Detection reagent (Invivogen), a cell culture medium that allows for detection of SEAP, according to manufacturer's specifications.

human TLR8 = human TLR8 (Homo sapiens (Human), UniProt Q9NR97); test: TLR8 inhibition reporter assay (HEK-Blue SEAP reporter, R848 stimulation);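 further: SEAP driven by IFN-β minimal promoter with NF-κB and AP-1 sites, 22 h incubation, compounds 0.05 nM–50 µM, inhibition scaled between agonist plus DMSO and reference inhibitor wells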
Chain of human TLR8 (Q9NR97 27-1041): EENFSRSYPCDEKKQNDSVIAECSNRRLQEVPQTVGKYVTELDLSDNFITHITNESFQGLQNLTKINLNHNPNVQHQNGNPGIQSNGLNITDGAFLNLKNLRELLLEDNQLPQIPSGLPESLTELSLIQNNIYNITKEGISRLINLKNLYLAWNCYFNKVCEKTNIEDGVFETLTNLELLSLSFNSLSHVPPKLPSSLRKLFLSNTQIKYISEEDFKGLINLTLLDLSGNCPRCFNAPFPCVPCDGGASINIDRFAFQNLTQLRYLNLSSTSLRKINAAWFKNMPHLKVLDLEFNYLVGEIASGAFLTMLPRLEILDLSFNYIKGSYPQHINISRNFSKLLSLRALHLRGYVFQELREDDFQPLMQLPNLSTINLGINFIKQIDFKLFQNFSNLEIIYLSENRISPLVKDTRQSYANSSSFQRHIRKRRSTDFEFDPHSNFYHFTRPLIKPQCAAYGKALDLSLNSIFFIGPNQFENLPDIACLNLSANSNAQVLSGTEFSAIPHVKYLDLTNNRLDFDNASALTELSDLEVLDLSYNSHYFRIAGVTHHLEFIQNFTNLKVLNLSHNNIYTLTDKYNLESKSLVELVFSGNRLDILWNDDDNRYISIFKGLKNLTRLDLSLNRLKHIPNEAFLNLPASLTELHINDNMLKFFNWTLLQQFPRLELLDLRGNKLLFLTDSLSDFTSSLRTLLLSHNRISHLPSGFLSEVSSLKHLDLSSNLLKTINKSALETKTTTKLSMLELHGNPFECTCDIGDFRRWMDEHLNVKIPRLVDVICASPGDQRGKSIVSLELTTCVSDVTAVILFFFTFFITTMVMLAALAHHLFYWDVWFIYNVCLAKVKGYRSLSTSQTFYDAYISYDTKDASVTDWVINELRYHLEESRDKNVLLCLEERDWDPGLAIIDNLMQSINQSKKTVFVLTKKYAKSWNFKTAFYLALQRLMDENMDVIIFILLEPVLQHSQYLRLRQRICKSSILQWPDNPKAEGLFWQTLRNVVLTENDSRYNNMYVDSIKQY
Procedure: as §1

human TLR9 = human TLR9 (Homo sapiens (Human), UniProt Q9NR96); test: TLR9 inhibition reporter assay (HEK-Blue SEAP reporter, ODN2006 stimulation);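 further: SEAP reporter under IFN-β minimal promoter with five NF-κB and AP-1 sites, 22 h incubation, compounds 0.05 nM–50 µM, inhibition relative to agonist plus DMSO versus known inhibitor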
Chain of human TLR9 (Q9NR96 26-1032): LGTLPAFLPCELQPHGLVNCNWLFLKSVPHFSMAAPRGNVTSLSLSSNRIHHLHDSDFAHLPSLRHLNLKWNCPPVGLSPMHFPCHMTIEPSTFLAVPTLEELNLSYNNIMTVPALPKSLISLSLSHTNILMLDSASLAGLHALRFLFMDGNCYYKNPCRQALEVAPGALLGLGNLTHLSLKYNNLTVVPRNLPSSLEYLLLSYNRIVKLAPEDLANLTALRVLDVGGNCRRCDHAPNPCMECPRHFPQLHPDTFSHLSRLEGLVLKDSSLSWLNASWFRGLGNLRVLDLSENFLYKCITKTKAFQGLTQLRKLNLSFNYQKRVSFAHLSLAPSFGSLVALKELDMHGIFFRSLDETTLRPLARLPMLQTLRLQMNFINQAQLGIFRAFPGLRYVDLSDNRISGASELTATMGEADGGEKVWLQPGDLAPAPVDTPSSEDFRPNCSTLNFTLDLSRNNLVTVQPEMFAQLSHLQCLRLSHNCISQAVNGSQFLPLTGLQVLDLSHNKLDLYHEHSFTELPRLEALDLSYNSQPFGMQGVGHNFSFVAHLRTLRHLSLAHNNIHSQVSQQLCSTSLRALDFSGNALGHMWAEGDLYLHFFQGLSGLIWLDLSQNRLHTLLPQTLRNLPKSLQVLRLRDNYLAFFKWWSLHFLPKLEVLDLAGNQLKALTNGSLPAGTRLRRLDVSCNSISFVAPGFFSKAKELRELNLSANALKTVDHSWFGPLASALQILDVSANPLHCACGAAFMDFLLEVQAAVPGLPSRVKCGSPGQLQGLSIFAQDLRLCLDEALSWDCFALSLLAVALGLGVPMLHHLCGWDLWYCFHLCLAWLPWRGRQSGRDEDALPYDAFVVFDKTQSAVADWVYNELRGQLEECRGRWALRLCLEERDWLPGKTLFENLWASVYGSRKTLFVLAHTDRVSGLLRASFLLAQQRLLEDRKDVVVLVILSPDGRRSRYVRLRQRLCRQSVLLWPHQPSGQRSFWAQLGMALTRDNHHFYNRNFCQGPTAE

[1] = read-out: TLR8 IC50, HEK-Blue cells overexpressing human TLR8, R848 15.9 μM, SEAP reporter
[2] = read-out: TLR9 IC50, HEK-Blue cells overexpressing human TLR9, ODN2006 5 nM, SEAP reporter

Chain of human TLR7 (Q9NYK1 27-1049): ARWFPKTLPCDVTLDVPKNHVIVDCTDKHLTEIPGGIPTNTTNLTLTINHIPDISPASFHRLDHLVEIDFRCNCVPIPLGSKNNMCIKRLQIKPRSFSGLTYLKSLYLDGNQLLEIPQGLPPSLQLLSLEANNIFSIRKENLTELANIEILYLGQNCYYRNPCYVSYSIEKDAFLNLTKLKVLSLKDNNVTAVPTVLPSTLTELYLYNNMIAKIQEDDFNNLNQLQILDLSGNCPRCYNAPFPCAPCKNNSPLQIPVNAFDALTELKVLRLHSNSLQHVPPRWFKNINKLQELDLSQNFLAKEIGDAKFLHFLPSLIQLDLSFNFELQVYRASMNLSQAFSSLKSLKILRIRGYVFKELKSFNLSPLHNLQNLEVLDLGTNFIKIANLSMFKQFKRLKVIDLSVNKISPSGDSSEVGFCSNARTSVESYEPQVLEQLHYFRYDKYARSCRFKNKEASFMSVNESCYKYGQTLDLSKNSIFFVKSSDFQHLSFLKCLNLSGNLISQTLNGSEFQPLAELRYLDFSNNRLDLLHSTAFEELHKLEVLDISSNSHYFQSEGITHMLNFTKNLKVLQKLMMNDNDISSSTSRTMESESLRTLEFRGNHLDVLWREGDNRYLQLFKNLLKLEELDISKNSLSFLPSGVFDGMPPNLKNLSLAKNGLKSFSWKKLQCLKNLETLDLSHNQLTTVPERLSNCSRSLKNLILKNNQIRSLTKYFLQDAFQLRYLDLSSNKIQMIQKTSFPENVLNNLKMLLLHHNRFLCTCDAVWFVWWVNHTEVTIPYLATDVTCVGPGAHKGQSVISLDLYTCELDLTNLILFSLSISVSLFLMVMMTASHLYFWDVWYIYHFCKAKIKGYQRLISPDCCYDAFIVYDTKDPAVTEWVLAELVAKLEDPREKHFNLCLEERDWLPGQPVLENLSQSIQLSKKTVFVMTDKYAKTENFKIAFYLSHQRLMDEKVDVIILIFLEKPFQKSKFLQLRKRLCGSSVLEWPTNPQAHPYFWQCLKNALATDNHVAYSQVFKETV

SMILES	IC50 (human TLR7)	IC50 (human TLR8; [1])	IC50 (human TLR9; [2])	IC50 (human TLR8)	IC50 (human TLR9)	IC50 (human TLR7; listed as 700)	IC50 (human TLR8; read-out: TLR8 IC50, HEK-Blue cells overexpressing human TLR8, R848 15.9 μM, SEAP reporter, listed as 700)	IC50 (human TLR9; read-out: TLR9 IC50, HEK-Blue cells overexpressing human TLR9, ODN2006 5 nM, SEAP reporter, listed as 700)
Cc1cc(-c2[nH]c3ccc(C(C)(C)C(=O)N4CCC5(CCNC5)C4)cc3c2C(C)C)ccn1 (stereo not drawn) [Example 178, 2-(3-isopropyl-2-(2-methylpyridin-4-yl)-1H-indol-5-yl)-2-methyl-1-(2,7-diazaspiro[4.4]nonan-2-yl)propan-1-one]	0.061 µM	0.859 µM	1.66 µM	–	–	–	–	–
Cc1cc(-c2[nH]c3ccc(C(C)(C)C(=O)N4CC5(CCNCC5)C4)cc3c2C(C)C)ccn1 [Example 179, 2-(3-isopropyl-2-(2-methylpyridin-4-yl)-1H-indol-5-yl)-2-methyl-1-(2,7-diazaspiro[3.5]nonan-2-yl)propan-1-one]	0.035 µM	1.13 µM	4.93 µM	–	–	–	–	–
Cc1cc(-c2[nH]c3ccc(C(C)(C)C(=O)N4CCCC5(CNC5)C4)cc3c2C(C)C)ccn1 [Example 180, 2-(3-isopropyl-2-(2-methylpyridin-4-yl)-1H-indol-5-yl)-2-methyl-1-(2,6-diazaspiro[3.5]nonan-6-yl)propan-1-one]	0.147 µM	0.306 µM	1 µM	–	–	–	–	–
Cc1cc(-c2[nH]c3ccc(C(C)(C)C(=O)N4CCC5(CCNC5)CC4)cc3c2C(C)C)ccn1 [Example 181, 2-(3-isopropyl-2-(2-methylpyridin-4-yl)-1H-indol-5-yl)-2-methyl-1-(2,8-diazaspiro[4.5]decan-8-yl)propan-1-one]	0.076 µM	1.24 µM	1.95 µM	–	–	–	–	–
Cc1cc(-c2[nH]c3ccc(C(C)(C)C(=O)N4CCCCC4C4CCNCC4)cc3c2C(C)C)ccn1 (stereo not drawn) [Example 182, 1-([2,4′-bipiperidin]-1-yl)-2-(3-isopropyl-2-(2-methylpyridin-4-yl)-1H-indol-5-yl)-2-methylpropan-1-one]	0.015 µM	0.081 µM	0.716 µM	–	–	–	–	–
Cc1cc(-c2[nH]c3ccc(C(C)(C)C(=O)N4CC5CNCC5C4)cc3c2C(C)C)ccn1 (stereo not drawn) [Example 183, 1-(hexahydropyrrolo[3,4-c]pyrrol-2(1H)-yl)-2-(3-isopropyl-2-(2-methylpyridin-4-yl)-1H-indol-5-yl)-2-methylpropan-1-one]	0.03 µM	0.103 µM	0.387 µM	–	–	–	–	–
Cc1cc(-c2[nH]c3ccc(C(C)(C)C(=O)N4CCCC5(CCNC5)C4)cc3c2C(C)C)ccn1 (stereo not drawn) [Example 184, 2-(3-isopropyl-2-(2-methylpyridin-4-yl)-1H-indol-5-yl)-2-methyl-1-(2,7-diazaspiro[4.5]decan-7-yl)propan-1-one]	0.091 µM	0.139 µM	0.533 µM	–	–	–	–	–
Cc1cc(-c2[nH]c3ccc(C(C)(C)C(=O)N4CC5CNC5C4)cc3c2C(C)C)ccn1 (stereo not drawn) [Example 185, 1-(3,6-diazabicyclo[3.2.0]heptan-3-yl)-2-(3-isopropyl-2-(2-methylpyridin-4-yl)-1H-indol-5-yl)-2-methylpropan-1-one]	0.071 µM	0.554 µM	11.9 µM	–	–	–	–	–
Cc1cc(-c2[nH]c3ccc(C(C)C(=O)NC4CCC5CNCC54)cc3c2C(C)C)ccn1 (stereo not drawn) [Example 186, 2-(3-isopropyl-2-(2-methylpyridin-4-yl)-1H-indol-5-yl)-N-(octahydrocyclopenta[c]pyrrol-4-yl)propanamide]	0.146 µM	0.1 µM	0.599 µM	–	–	–	–	–
Cc1cc(-c2[nH]c3ccc(C(C)C(=O)NC4CCC5CNCC54)cc3c2C(C)C)ccn1 (stereo not drawn) [Example 187, 2-(3-isopropyl-2-(2-methylpyridin-4-yl)-1H-indol-5-yl)-N-(octahydrocyclopenta[c]pyrrol-4-yl)propanamide]	0.223 µM	0.496 µM	1.35 µM	–	–	–	–	–
Cc1cc(-c2[nH]c3ccc(C(C)C(=O)N[C@@H]4CCNC4)cc3c2C(C)C)ccn1 (stereo partly drawn) [Example 188, 2-(3-isopropyl-2-(2-methylpyridin-4-yl)-1H-indol-5-yl)-N—((R)-pyrrolidin-3-yl)propanamide]	0.458 µM	0.387 µM	2.62 µM	–	–	–	–	–
Cc1cc(-c2[nH]c3ccc(C(C)C(=O)N[C@H]4CCNC4)cc3c2C(C)C)ccn1 (stereo partly drawn) [Example 189, 2-(3-isopropyl-2-(2-methylpyridin-4-yl)-1H-indol-5-yl)-N—((S)-pyrrolidin-3-yl)propanamide]	0.268 µM	0.246 µM	1.68 µM	–	–	–	–	–
Cc1cc(-c2[nH]c3ccc(C(C)C(=O)N[C@H]4CCNC4)cc3c2C(C)C)ccn1 (stereo partly drawn) [Example 190, 2-(3-isopropyl-2-(2-methylpyridin-4-yl)-1H-indol-5-yl)-N—((S)-pyrrolidin-3-yl)propanamide]	0.137 µM	0.211 µM	0.957 µM	–	–	–	–	–
Cc1cc(-c2[nH]c3ccc(C(C)C(=O)NC4CN5CCC4CC5)cc3c2C(C)C)ccn1 (stereo not drawn) [Example 191, 2-(3-isopropyl-2-(2-methylpyridin-4-yl)-1H-indol-5-yl)-N-(quinuclidin-3-yl)propanamide]	0.175 µM	0.209 µM	1.29 µM	–	–	–	–	–
Cc1cc(-c2[nH]c3ccc(C(C)C(=O)NC4CN5CCC4CC5)cc3c2C(C)C)ccn1 (stereo not drawn) [Example 192, 2-(3-isopropyl-2-(2-methylpyridin-4-yl)-1H-indol-5-yl)-N-(quinuclidin-3-yl)propanamide]	0.071 µM	0.142 µM	1.53 µM	–	–	–	–	–
Cc1cc(-c2[nH]c3ccc(C(C)C(=O)NC4CCNCC4)cc3c2C(C)C)ccn1 (stereo not drawn) [Example 193, 2-(3-isopropyl-2-(2-methylpyridin-4-yl)-1H-indol-5-yl)-N-(piperidin-4-yl)propanamide]	0.203 µM	0.147 µM	3.37 µM	–	–	–	–	–
Cc1cc(-c2[nH]c3ccc(C(C)C(=O)NC4CCN(C(C)C)CC4)cc3c2C(C)C)ccn1 (stereo not drawn) [Example 194, 2-(3-isopropyl-2-(2-methylpyridin-4-yl)-1H-indol-5-yl)-N-(1-isopropylpiperidin-4-yl)propanamide]	0.152 µM	–	–	0.106 µM	3.89 µM	–	–	–
Cc1cc(-c2[nH]c3ccc(C(C)C(=O)N[C@@H]4CCCNC4)cc3c2C(C)C)ccn1 (stereo partly drawn) [Example 195, 2-(3-isopropyl-2-(2-methylpyridin-4-yl)-1H-indol-5-yl)-N—((R)-piperidin-3-yl)propanamide]	0.273 µM	0.075 µM	0.912 µM	–	–	–	–	–
Cc1cc(-c2[nH]c3ccc(C(C)C(=O)N[C@@H]4CCCNC4)cc3c2C(C)C)ccn1 (stereo partly drawn) [Example 196, 2-(3-isopropyl-2-(2-methylpyridin-4-yl)-1H-indol-5-yl)-N—((R)-piperidin-3-yl)propanamide]	0.051 µM	0.088 µM	0.866 µM	–	–	–	–	–
Cc1cc(-c2[nH]c3ccc(C(C)C(=O)N4CC5CN(C)CC5C4)cc3c2C(C)C)ccn1 (stereo not drawn) [Example 197, 2-(3-isopropyl-2-(2-methylpyridin-4-yl)-1H-indol-5-yl)-1-(5-methylhexahydropyrrolo[3,4-c]pyrrol-2(1H)-yl)propan-1-one]	0.2 µM	0.13 µM	3.29 µM	–	–	–	–	–
Cc1cc(-c2[nH]c3ccc(C(C)C(=O)N4CCC5(CCN(C)C5)CC4)cc3c2C(C)C)ccn1 (stereo not drawn) [Example 198, 2-(3-isopropyl-2-(2-methylpyridin-4-yl)-1H-indol-5-yl)-1-(2-methyl-2,8-diazaspiro[4.5]decan-8-yl)propan-1-one]	0.046 µM	0.072 µM	1.31 µM	–	–	–	–	–
Cc1cc(-c2[nH]c3ccc(C(C)C(=O)N4CCC(CN)C4)cc3c2C(C)C)ccn1 (stereo not drawn) [Example 199, 1-(3-(aminomethyl)pyrrolidin-1-yl)-2-(3-isopropyl-2-(2-methylpyridin-4-yl)-1H-indol-5-yl)propan-1-one]	0.443 µM	0.303 µM	1.21 µM	–	–	–	–	–
Cc1cc(-c2[nH]c3ccc(C(C)C(=O)N4CCCC5(CCCCC5N)C4)cc3c2C(C)C)ccn1 (stereo not drawn) [Example 200, 1-(7-amino-2-azaspiro[5.5]undecan-2-yl)-2-(3-isopropyl-2-(2-methylpyridin-4-yl)-1H-indol-5-yl)propan-1-one]	–	–	–	–	–	0.012 µM	0.069 µM	0.69 µM
Cc1cc(-c2[nH]c3ccc(C(C)C(=O)N4CCCC5(CCCCC5N)C4)cc3c2C(C)C)ccn1 (stereo not drawn) [Example 201, 1-(7-amino-2-azaspiro[5.5]undecan-2-yl)-2-(3-isopropyl-2-(2-methylpyridin-4-yl)-1H-indol-5-yl)propan-1-one]	0.074 µM	0.07 µM	1.87 µM	–	–	–	–	–
Cc1cc(-c2[nH]c3ccc(C(C)C(=O)N4CCC(CN)CC4)cc3c2C(C)C)ccn1 (stereo not drawn) [Example 202, 1-(4-(aminomethyl)piperidin-1-yl)-2-(3-isopropyl-2-(2-methylpyridin-4-yl)-1H-indol-5-yl)propan-1-one]	0.174 µM	0.534 µM	1.35 µM	–	–	–	–	–
Cc1cc(-c2[nH]c3ccc(C(C)C(=O)N4CCC(N)CC4)cc3c2C(C)C)ccn1 (stereo not drawn) [Example 203, 1-(4-aminopiperidin-1-yl)-2-(3-isopropyl-2-(2-methylpyridin-4-yl)-1H-indol-5-yl)propan-1-one]	0.296 µM	0.365 µM	0.746 µM	–	–	–	–	–
Cc1cc(-c2[nH]c3ccc(C(C)C(=O)N4CCC[C@H](N)C4)cc3c2C(C)C)ccn1 (stereo partly drawn) [Example 204, 1-((S)-3-aminopiperidin-1-yl)-2-(3-isopropyl-2-(2-methylpyridin-4-yl)-1H-indol-5-yl)propan-1-one]	0.074 µM	0.119 µM	0.939 µM	–	–	–	–	–
Cc1cc(-c2[nH]c3ccc(C(C)C(=O)N4CCCC(CN)C4)cc3c2C(C)C)ccn1 (stereo not drawn) [Example 205, 1-(3-(aminomethyl)piperidin-1-yl)-2-(3-isopropyl-2-(2-methylpyridin-4-yl)-1H-indol-5-yl)propan-1-one]	0.277 µM	0.341 µM	2.46 µM	–	–	–	–	–
